Laboratory results as given in article PMC12259270, “Sensory neuron–expressed FGF13 controls nociceptive signaling in diabetic neuropathy models” (The Journal of Clinical Investigation, 2025).
“And” between values parts separate entries of the source, which are not always exact repeats. Equal entries are not always repeated. Residues, ends and D or L forms follow the SMILES beside them. *: point of attachment. NHPh = c1ccc(N*)cc1

Molecular target: T1, human Nav1.7 (Homo sapiens, UniProt Q15858)
T1 construct: expressed in transfected cells; host or cells: HEK293 stably expressing human Nav1.7
Assay: Whole-cell patch-clamp, HEK293 cells stably expressing human Nav1.7 with GFP or FGF13-GFP
Format: cell-based
Parameters: Nav1.7 repriming time course, Mean / Figure 4I, Mean versus Time (ms): unit not given here
Settings: for Figure 4G, Mean per step (normalized): N 10; for Figure 4H, Mean per step (step 1 = 100): N 9
Experimental: Whole-cell patch clamp electrophysiology
HEK293-Nav1.7 cells, HEK293 stably expressing human Nav1.6 (HEK-Nav1.6), HEK293 stably expressing human Nav1.5 (HEK-Nav1.5), human hIPSC-derived sensory neurons (RealDRGTM from Anatomic Incorporated 1020F1-1M) and donor-derived DRG neurons were plated at low density on glass coverslips and processed for whole-cell patch clamp electrophysiology in voltage-clamp and/or current clamp mode. Whole-cell patch electrophysiological experiments were conducted following previously published studies (26). Current densities were obtained by dividing INa amplitude by membrane capacitance. Current –voltage relationships were generated by plotting current density as a function of the […]. Conductance (G Na) was calculated by the […]
where INa is the current amplitude at voltage Vm, and Erev is the Na+ reversal potential.
Activation curves were derived by plotting normalized GNa as a function of test potential and fitted using […]
Where GNa,Max is the maximum conductance, Va is the membrane potential of half-maximal activation, Em is the membrane voltage and k is the slope factor. For steady -state inactivation, normalized current amplitude (INa/INa,Max) at the test potential was plotted as a function of prepulse potential (Vm) and fitted using the […]
Where Vh is the potential of half-maximal inactivation, E m is the membrane voltage, and k is the slope factor.
Transient INa inactivation decay was estimated with the standard exponential equation. Inactivation time constant (tau, τ) was fitted with the following equation: […]
where I(t) is the amplitude of the current at time t and Iss is the steady-state current during a single voltage-step.
The goodness of fitting was determined by correlation coefficient (R), and the cutoff of R was set at 0.85. To observe effects on long-term inactivation (LTI), a four-step protocol was employed during which cells were subjected to four 0 mV, 20 ms depolarization pulses separated by −90 mV, 40 ms recovery intervals. To control for various cell sizes, the current densities were calculated by dividing INa peak current amplitude/membrane capacitance (Cm). To represent the fraction of channels entering into LTI, the peak INa observed during depolarization cycles 2-4 was normalized to the peak INa observed during depolarization cycle 1 (INa/INa,Cycle 1) and plotted as a function of the depolarization cycle.
The cumulative (frequency-dependent) use-dependency was determined by applying 20 pulses with a depolarization to −10 mV (50 ms duration) and 50 ms recovery intervals with a train of 20 pulses at 10 Hz from a holding potential at -70 mV. The current pulses were normalized to the first reco rded pulse and the currents at the 2nd to 20th pulses were compared. The same train was used to record use-dependency at various frequencies […]
The rate of recovery from inactivation was recorded at -80 mV with a standard repriming voltage protocol.
The cells were prepulsed to -20 mV for 20 ms to inactivate all currents, then driven back to the recovery potential (Vrec) for increasing recovery durations before the test pulse to 0 mV. The maximum pulse rate was 0.5 Hz. The […]
follows previous publications (16). The time constants were estimated from single exponential decay to time courses measured at recovery potentials ranging from -140 to -60 mV with the protocol as mentioned above.
Electrophysiological Recordings
HEK293 cells: Electrophysiological recordings in HEK293 stably expressing Nav1.7 (HEK-Nav1.7), Nav1.5 (HEK-Nav1.5) or Nav1.6 (HEK-Nav1.6) were performed at room temperature using a MultiClamp 700B or an Axopatch 200B amplifier (Molecular Devices) after incubating coverslips for 60 minutes either with 0.1% DMSO or 50 μM PW164 or ZL192 in the extracellular solution. The composition of recording solutions consisted of the […]
following salts: extracellular (mM): 140 NaCl, 3 KCl, 1 MgCl2, 1 CaCl2, 10 HEPES, 10 glucose, pH 7.3; […]
intracellular (mM): 130 CH3O3 SCs, 1 EGTA, 10 NaCl, 10 HEPES, pH 7.3. […]

T1 sequence (Q92913 1-192 partner limits assumed): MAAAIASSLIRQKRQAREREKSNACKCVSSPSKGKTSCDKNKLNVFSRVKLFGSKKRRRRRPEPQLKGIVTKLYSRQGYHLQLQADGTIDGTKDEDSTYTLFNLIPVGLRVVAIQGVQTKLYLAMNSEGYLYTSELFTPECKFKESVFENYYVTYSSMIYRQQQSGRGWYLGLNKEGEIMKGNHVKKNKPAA
T1 sequence (Q15858 1-1977 isoform Q15858-3): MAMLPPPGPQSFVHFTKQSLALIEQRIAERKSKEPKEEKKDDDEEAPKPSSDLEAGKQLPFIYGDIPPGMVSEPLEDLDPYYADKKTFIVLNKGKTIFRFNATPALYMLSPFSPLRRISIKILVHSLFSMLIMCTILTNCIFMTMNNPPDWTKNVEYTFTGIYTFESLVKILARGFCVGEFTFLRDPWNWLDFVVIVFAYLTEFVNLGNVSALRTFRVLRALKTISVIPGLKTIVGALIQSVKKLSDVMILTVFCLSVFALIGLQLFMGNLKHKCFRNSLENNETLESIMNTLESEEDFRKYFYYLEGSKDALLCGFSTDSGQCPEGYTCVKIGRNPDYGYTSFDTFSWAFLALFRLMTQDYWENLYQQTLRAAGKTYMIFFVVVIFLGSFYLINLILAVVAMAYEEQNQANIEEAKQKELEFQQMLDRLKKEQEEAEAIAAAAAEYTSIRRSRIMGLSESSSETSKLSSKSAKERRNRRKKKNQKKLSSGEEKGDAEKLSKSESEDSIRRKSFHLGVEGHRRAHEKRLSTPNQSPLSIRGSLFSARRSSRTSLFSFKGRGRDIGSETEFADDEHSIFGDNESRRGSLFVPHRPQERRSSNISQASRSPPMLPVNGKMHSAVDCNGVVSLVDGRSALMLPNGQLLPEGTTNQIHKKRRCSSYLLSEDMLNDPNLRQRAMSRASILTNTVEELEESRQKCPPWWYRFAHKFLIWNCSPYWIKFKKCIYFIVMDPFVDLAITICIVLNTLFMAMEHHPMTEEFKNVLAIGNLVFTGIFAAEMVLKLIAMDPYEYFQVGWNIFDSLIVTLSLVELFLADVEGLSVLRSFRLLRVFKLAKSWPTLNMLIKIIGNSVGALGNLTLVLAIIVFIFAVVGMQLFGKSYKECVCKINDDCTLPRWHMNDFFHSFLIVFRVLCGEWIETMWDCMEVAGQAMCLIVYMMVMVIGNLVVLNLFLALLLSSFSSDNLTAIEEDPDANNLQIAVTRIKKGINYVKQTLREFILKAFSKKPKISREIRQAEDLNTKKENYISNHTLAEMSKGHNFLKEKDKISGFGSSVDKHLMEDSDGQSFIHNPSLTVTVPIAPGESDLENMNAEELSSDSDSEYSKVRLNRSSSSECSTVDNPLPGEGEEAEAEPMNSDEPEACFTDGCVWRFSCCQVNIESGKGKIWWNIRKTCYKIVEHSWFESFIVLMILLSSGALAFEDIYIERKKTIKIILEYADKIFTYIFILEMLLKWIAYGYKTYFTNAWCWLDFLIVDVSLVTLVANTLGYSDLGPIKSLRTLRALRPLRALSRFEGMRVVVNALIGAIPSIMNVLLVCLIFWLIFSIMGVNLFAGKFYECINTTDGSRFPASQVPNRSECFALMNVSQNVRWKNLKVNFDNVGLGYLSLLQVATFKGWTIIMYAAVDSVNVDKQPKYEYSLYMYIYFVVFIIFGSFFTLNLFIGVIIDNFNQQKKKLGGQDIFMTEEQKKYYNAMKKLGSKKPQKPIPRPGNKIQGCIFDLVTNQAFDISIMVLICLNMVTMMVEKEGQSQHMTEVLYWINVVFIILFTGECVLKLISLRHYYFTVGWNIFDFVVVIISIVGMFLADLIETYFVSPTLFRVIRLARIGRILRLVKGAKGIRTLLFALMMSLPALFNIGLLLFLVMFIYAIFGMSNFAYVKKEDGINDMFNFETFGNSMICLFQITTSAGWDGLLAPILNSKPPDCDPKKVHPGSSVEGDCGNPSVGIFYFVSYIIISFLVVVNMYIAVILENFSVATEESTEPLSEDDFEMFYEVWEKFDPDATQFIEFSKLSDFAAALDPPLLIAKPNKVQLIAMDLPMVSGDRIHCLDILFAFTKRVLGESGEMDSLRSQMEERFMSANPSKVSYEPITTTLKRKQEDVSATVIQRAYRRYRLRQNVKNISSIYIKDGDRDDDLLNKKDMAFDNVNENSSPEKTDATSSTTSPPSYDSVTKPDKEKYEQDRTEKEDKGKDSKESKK

With `CC(=O)N[C@@H](Cc1ccccc1)C(=O)N[C@@H](CC(C)C)C(=O)N1CCC[C@H]1C(=O)N[C@@H](CCCCN)C(=O)Nc1ccccc1` [ZL192] (Ac-FLPK-NHPh) the “Figure 4G, Mean per step (normalized)” value (Nav1.7 + FGF13-GFP, Steps 20) was 0.8672, the “Figure 4I, Mean versus Time (ms)” value (Nav1.7 + FGF13-GFP, Time (ms) 2, N 7) was -2.382 and the “Figure 4I, Mean versus Time (ms)” value (Nav1.7 + FGF13-GFP, Time (ms) 5, N 7) was -10.2316. The “Figure 4I, Mean versus Time (ms)” value (Nav1.7 + FGF13-GFP, Time (ms) 9, N 7) was -21.032, the “Figure 4I, Mean versus Time (ms)” value (Nav1.7 + FGF13-GFP, Time (ms) 17, N 7) was -28.22 and the “Figure 4I, Mean versus Time (ms)” value (Nav1.7 + FGF13-GFP, Time (ms) 33, N 7) was -35.2152. The “Figure 4I, Mean versus Time (ms)” value (Nav1.7 + FGF13-GFP, Time (ms) 65, N 7) was -41.6453, the “Figure 4I, Mean versus Time (ms)” value (Nav1.7 + FGF13-GFP, Time (ms) 129, N 7) was -47.08 and the “Figure 4I, Mean versus Time (ms)” value (Nav1.7 + FGF13-GFP, Time (ms) 257, N 7) was -58.7924. For the same compound, the “Figure 4I, Mean versus Time (ms)” value (Nav1.7 + FGF13-GFP, Time (ms) 513, N 7) was -60.0808, the “Figure 4I, Mean versus Time (ms)” value (Nav1.7 + FGF13-GFP, Time (ms) 1025, N 7) was -61.473 and the “Figure 4I, Mean versus Time (ms)” value (Nav1.7 + FGF13-GFP, Time (ms) 2000, N 7) was -62.66. The “Current density pA/pF (Figure 4D), individual cells” value (Nav1.7 + GFP) was -42.7131 pA/pF and -116.886 pA/pF and -86.2507 pA/pF and -55.3628 pA/pF and -87.5203 pA/pF and -98.7467 pA/pF and -44.4757 pA/pF and -64.4298 pA/pF and -57.1752 pA/pF and -107.666 pA/pF and -47.813 pA/pF, the “Figure 4H, Mean per step (step 1 = 100)” value (Nav1.7 + GFP, Steps 1) was 100 and the “Figure 4G, Mean per step (normalized)” value (Nav1.7 + GFP, Steps 1) was 1. For the same compound, the “Figure 4H, Mean per step (step 1 = 100)” value (Nav1.7 + GFP, Steps 2) was 67.9415, the “Figure 4H, Mean per step (step 1 = 100)” value (Nav1.7 + GFP, Steps 3) was 62.3546 and the “Figure 4G, Mean per step (normalized)” value (Nav1.7 + GFP, Steps 3) was 0.8342. The “Figure 4H, Mean per step (step 1 = 100)” value (Nav1.7 + GFP, Steps 4) was 60.931, the “Figure 4G, Mean per step (normalized)” value (Nav1.7 + GFP, Steps 5) was 0.7578 and the “Figure 4G, Mean per step (normalized)” value (Nav1.7 + GFP, Steps 10) was 0.7548. The “Figure 4G, Mean per step (normalized)” value (Nav1.7 + GFP, Steps 15) was 0.7445, the “Figure 4G, Mean per step (normalized)” value (Nav1.7 + GFP, Steps 20) was 0.751 and the “Figure 4I, Mean versus Time (ms)” value (Nav1.7 + GFP, Time (ms) 2, N 6) was -1.684. The “Figure 4I, Mean versus Time (ms)” value (Nav1.7 + GFP, Time (ms) 5, N 6) was -3.032, the “Figure 4I, Mean versus Time (ms)” value (Nav1.7 + GFP, Time (ms) 9, N 6) was -5.9665 and the “Figure 4I, Mean versus Time (ms)” value (Nav1.7 + GFP, Time (ms) 17, N 6) was -10.1843. For the same compound, the “Figure 4I, Mean versus Time (ms)” value (Nav1.7 + GFP, Time (ms) 33, N 6) was -13.6758, the “Figure 4I, Mean versus Time (ms)” value (Nav1.7 + GFP, Time (ms) 65, N 6) was -16.716 and the “Figure 4I, Mean versus Time (ms)” value (Nav1.7 + GFP, Time (ms) 129, N 6) was -20.6484. The “Figure 4I, Mean versus Time (ms)” value (Nav1.7 + GFP, Time (ms) 257, N 6) was -23.8114, the “Figure 4I, Mean versus Time (ms)” value (Nav1.7 + GFP, Time (ms) 513, N 6) was -25.3409 and the “Figure 4I, Mean versus Time (ms)” value (Nav1.7 + GFP, Time (ms) 1025, N 6) was -26.7193. For the same compound, the “Figure 4I, Mean versus Time (ms)” value (Nav1.7 + GFP, Time (ms) 2000, N 6) was -29.0414.
